Measured values: patent US9738670B2, “Pentaaza macrocyclic ring complexes possessing oral bioavailability” (Galera Labs, LLC, priority 2015, dated 2017)
Blank lines part the entries; values can stand above or below the molecule they belong to.

Key:
[1] = Intraduodenal (id) bioavailability screen in minipigs, oil formulations, vs iv parent dichloro complex; type: in vivo, Gottingen minipig; conditions: id 10 mg/kg, 10% by weight formulation, AUC0->24 h vs iv 1 mg/kg parent chloro complex
Experimental: Compounds were screened for oral bioavailability by injecting the formulated prodrugs directly into the duodenum (intraduodenal or id administration) of the minipig test subjects, thus bypassing the acidic environment of the stomach and thereby eliminating potentially misleading oral bioavailability results that could arise from alteration of the test article drug in the acid environment of the stomach.
The studies were conducted at Xenometrics LLC (Stillwell, Kans.) and the Id bioavailability was determined using various axial ligand derivative complexes of GC4419, GC4444, GC4403 and GC4401.
*Where the iv dose is 1 mg of test article drug per kilogram body weight of the mini-pig, and the dose administered id is 10 mg of test article drug per kg body weight of the mini-pig.
Male Gottingen minipigs (4-5 mo old, 9-12 kg weight) were purchased from Marshall BioResources and housed at Xenometrics. […] The distal end was exteriorized with a reusable accessible hub (see surgical details below). During a recovery period of at least 2 weeks the minipigs were handled daily to acclimate them to the test procedures, i.e., id dosing and blood collections. For each experiment, each minipig received a test article drug dissolved or suspended in an excipient vehicle. […] All dosing experiments were conducted in fasted animals. Food was withdrawn from the minipigs 16 hours before dosing. The minipigs had ad libitum access to water. Dosed minipigs were allowed access to food 6 hour after dosing. The test article was administered at a dose of 10 mg/kg parent drug in 0.1 m L/kg vehicle (e.g., 1.5 mL in 15 kg minipig) as a bolus injection (˜1 minute) via the id cannula. The actual amount of total test article drug administered varied with the formula weight of the prodrug. An equal volume of excipient vehicle was used to flush the cannula after the test article was administered. Approximately 6 hours later, corn oil was used to flush the cannula. After approximately 24 hours post-dose, the catheter was flushed with sterile saline solution and capped. At the following time-points 0.25, 0.5, 1, 2, 4, 8, 24 and 48 hour post-injection, 2 mL blood samples were collected by cranial vena cava puncture (4 mL Sodium heparin Vacutainer, 20 g 1.5″ needle) after the skin surface was wiped with ethanol. The minipig was placed in a sling in a recumbent position without anesthesia for the collection of blood samples. The minipigs were never used more than once per 7 days for experimentation. The blood samples were kept on ice until processed for plasma. Blood samples were centrifuged at 1200×g for ten minutes at 4° C. and plasma samples were transferred to 96 well plate tubes, capped and stored at −20° C. until shipment on dry ice to the analytical laboratory used for measuring the concentration of drug in the plasma. The concentration of the parent manganese pentaaza macrocylic ring complex (independent of the composition of the axial ligands) was measured in plasma using a validated HPLC/MS/MS method that is linear between 50 ng/mL and 20,000 ng/mL.
The oils used for preparing the dosing solutions were used as supplied from commercial sources. The Capmul MCM (NF) is a mixture of mono/diglycerides of caprylic/capric acids and was supplied by ABITEC Corporation, Janesville, Wis. The Miglyol 812 N is a mixture of caprylic/capric acid triglycerides and was supplied by Cremer Oleo Division, Eatontown, N.J. Labrafil M 2125 CS (NF) is chemically defined to be linoleoyl polyoxyl-6 glycerides NF and was supplied by Gattefosse, SAINT-PRIEST Cedex, France. Peceol is chemically defined to be the monoglyceride, glyceryl monooleate NF, and was supplied by Gattefosse, SAINT-PRIEST Cedex, France. Maisine 35-1 is chemically defined to be the monoglyceride glyceryl monolinoleate (NF) and was supplied by Gattefosse, SAINT-PRIEST Cedex, France. Labrasol (NF) is chemically defined to be caprylocaproyl polyoxyl-8 glycerides NF and was supplied by Gattefosse, SAINT-PRIEST Cedex, France. […]

[2] = test system: experimental model of colitis; conditions: intraperitoneal (ip) injection, rats; cited from earlier work
[3] = test system: radiation-induced oral mucositis; conditions: ip, hamster; cited from earlier work
[4] = test system: lethal total body irradiation; conditions: ip, adult mice; cited from earlier work
[5] = test system: collagen-induced arthritis; conditions: ip, rat; cited from earlier work
[6] = test system: VEGFr inhibitor-induced pulmonary disease; conditions: ip, rat; cited from earlier work
[7] = test system: mouse cancer models; conditions: ip; cited from earlier work
[8] = test system: oral mucositis; conditions: intravenous (iv) infusion, patients; cited from earlier work

Molecule: [Cl-].[Cl-].[Mn+2].c1cc2nc(c1)CN[C@@H]1CCCC[C@H]1NCCN[C@@H]1CCCC[C@H]1NC2 [GC4403]
Mini-Pig BioA ([1]; base oil Capmul MCM): 9%
injury to the colon [2]: significantly reduce the injury to the colon
radiation damage [3]: attenuate the radiation damage
radiation damage [4]: attenuate the radiation damage
joint disease [5]: prevent joint disease

Molecule: Manganese(II)bis-racemic-phenylglycinato[2S, 21S-Dimethyl(4aR,13aR,17aR,21aR)-1,2,3,4,4a,5,6,12,13,13a,14,15,16,17,17a,18,19,20,21,21a-Eicosahydro-11,7-nitrilo-7H-dibenzo[b,h][1,4,7,10] tetraazacycloheptadecine-KN5, KN13, KN18, KN21, KN22]- [GC4715]
Mini-Pig BioA ([1]; base oil Capmul MCM): 36%

Molecule: Manganese(II)bis-racemic-phenylglycinato[6R-Methyl(4aR,13aR,17aR,21aR)-1,2,3,4,4a,5,6,12,13,13a,14,15,16,17,17a,18,19,20,21,21a-Eicosahydro-11,7-nitrilo-7H-dibenzo[b,h][1,4,7,10] tetraazacycloheptadecine-KN5, KN13, KN18, KN21, KN22]- [GC4716]
Mini-Pig BioA ([1]; base oil Capmul MCM): 34%

More lines, main results first:

Mini-Pig BioA ([1]; base oil Capmul MCM): 9%
Mini-Pig BioA ([1]; base oil Labrafil M2125 CS): 7%
Mini-Pig BioA ([1]; base oil Maisine 35-1): 8%
Mini-Pig BioA ([1]; base oil Miglyol 812N): 8%
Mini-Pig BioA ([1]; base oil Peceol): 9%
Molecule: [Cl][Mn][Cl].c1cc2nc(c1)CN[C@H]1CCCC[C@@H]1NCCN[C@H]1CCCC[C@@H]1NC2 [GC4419, reference compound]
pulmonary disease [6]: attenuate VEGFr inhibitor-induced pulmonary disease
anti-tumor activity of co-administered agents [7]: increase the anti-tumor activity of anti-metabolite and anti-mitotic agents
oral mucositis [8]: reduce oral mucositis

Mini-Pig BioA ([1]; base oil Capmul MCM): 23%
Mini-Pig BioA ([1]; base oil Peceol): 24%
Molecule: Manganese(II)bis-racemic-2-phenylpropionato[(4aS,13aS,17aS,21aS)-1,2,3,4,4a,5,6,12,13,13a,14,15,16,17,17a,18,19,20,21,21a-Eicosahydro-11,7-nitrilo-7H-dibenzo[b,h][1,4,7,10] tetraazacycloheptadecine-KN5, KN13, KN18, KN21, KN22]- [GC4705]

Mini-Pig BioA ([1]; base oil Capmul MCM): 26%
Molecule: Manganese(II)bis-racemic-phenylglycinato[(4aR,13aR,17aR,21aR)-1,2,3,4,4a,5,6,12,13,13a,14,15,16,17,17a,18,19,20,21,21a-Eicosahydro-11,7-nitrilo-7H-dibenzo[b,h][1,4,7,10] tetraazacycloheptadecine-KN5, KN13, KN18, KN21, KN22]- [GC4717]

Mini-Pig BioA ([1]; base oil Capmul MCM): 33%
Mini-Pig BioA ([1]; base oil Miglyol 812N): 32%
Molecule: Manganese(II)bis-racemic-phenylglycinato[(4aS,13aS,17aS,21aS)-1,2,3,4,4a,5,6,12,13,13a,14,15,16,17,17a,18,19,20,21,21a-Eicosahydro-11,7-nitrilo-7H-dibenzo[b,h][1,4,7,10] tetraazacycloheptadecine-KN5, KN13, KN18, KN21, KN22]- [GC4720]
